Assay results published in ChEMBL document CHEMBL5131441, “De-novo designed β-lysine derivatives can both augment and diminish the proliferation rates of E. coli through the action of Elongation Factor P” (Bioorg Med Chem Lett, 2022).
Calls of active or inactive are those of the source. The calls are words filed in the database; no cut-off is given here.

How the values were obtained:
Escherichia coli [1] = assay: Antibacterial activity against Escherichia coli K12 harbouring elongation factor P deltayjeK variant assessed as restoration in bacterial growth at 500 uM incubated for 240 mins in presence of gentamicin by turbidity based analysis; format: functional, organism-based
[2] = Cytotoxicity against HEK293 cells assessed as cell survival rate at 50 uM relative to control; format: toxicity, cell-based; details: human, read-out: Survival
Escherichia coli [3] = assay: Antibacterial activity against Escherichia coli K12 harbouring wild type elongation factor P at 500 uM incubated for 240 mins by turbidity based analysis; format: functional, organism-based
Escherichia coli [4] = assay: Antibacterial activity against Escherichia coli K12 harbouring elongation factor P delta-efp variant assessed as reduction in bacterial growth at 500 uM incubated for 240 mins by turbidity based analysis; format: functional, organism-based
Escherichia coli [5] = assay: Antibacterial activity against Escherichia coli K12 harbouring elongation factor P deltapoxA variant assessed as reduction in bacterial growth at 500 uM incubated for 240 mins by turbidity based analysis; format: functional, organism-based
Escherichia coli [6] = assay: Antibacterial activity against Escherichia coli K12 harbouring elongation factor P deltayjeK variant assessed as reduction in bacterial growth at 500 uM incubated for 240 mins by turbidity based analysis; format: functional, organism-based
[7] = Cytotoxicity against HEK293 cells assessed as inhibition of cell growth; format: toxicity, cell-based; details: human
Escherichia coli [8] = assay: Antibacterial activity against Escherichia coli K12 harbouring elongation factor P deltayjeK variant assessed as reduction in bacterial growth incubated for 240 mins by turbidity based analysis; format: functional, organism-based
[9] = Cytotoxicity against HEK293 cells assessed as cell survival rate at 500 uM relative to control; format: toxicity, cell-based; details: human, read-out: Survival

Row | Compound | Activity (Escherichia coli [1]) | Activity (Escherichia coli [6]) | other results
1 | CC(=O)NCCCC(N)CC(=O)O (racemic) | Active | – | –
2 | NCCCCCCCCCCCCNCCCC(N)CC(=O)O (racemic) | – | Active | viability at 50 µM [2]: 14%; Activity (Escherichia coli [3]): Active; Activity (Escherichia coli [4]): Active; Activity (Escherichia coli [5]): Active
3 | CCNCCCC(N)CC(=O)O (racemic) | Active | – | –
4 | CCCNCCCC(N)CC(=O)O (racemic) | Active | – | –
5 | NC(CCCNCc1ccccc1)CC(=O)O (racemic) | Active | – | –
6 | NCCCCCCCCCCCNCCCC(N)CC(=O)O (racemic) | – | – | Activity (Escherichia coli [3]): Active
7 | CCCCCCNCCCC(N)CC(=O)O (racemic) | Active | – | IC50 [7]: 110 µM
8 | GENTAMICIN | – | Active | MIC (Escherichia coli [8]): 6 µg/mL
9 | NCCCCCCCCNCCCC(N)CC(=O)O (racemic) | Active | – | –
10 | NCCCCCCCCCCNCCCC(N)CC(=O)O (racemic) | – | Active | viability at 50 µM [2]: 81%; viability at 500 µM [9]: 0%; IC50 [7]: 250 µM; Activity (Escherichia coli [3]): Active
11 | NCCCCC(N)CC(=O)O (racemic) | – | Active | –
12 | CNCCCC(N)CC(=O)O (racemic) | Active | – | –
